Source: the supplement of paper PMC10307832

Tests used:
Assay in all cases: relative viability (nuclei count vs DMSO), 5 days (fraction); higher = more cells survive
A549 = test system: A549
Outline: (§1)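 After 5 days of treatment, lung cancer cells in 1536-well plates were fixed and stained in a single step (final 0.05% Triton X-100, 1% formaldehyde, 1 ug/ml Hoechst) and their nuclei counted on 4× images. Treatment had been applied by pin tool the day after seeding as one drug alone or as a fixed anchor-drug dose with five library-drug doses (not always all listed) in √10 steps. Relative viability is the nuclei count of treated wells divided by that of vehicle wells, and values are medians of duplicate plates.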

Calu-6 = test system: Calu-6
Outline: as §1

EBC-1 = test system: EBC-1
Outline: as §1

IA-LM = test system: IA-LM
Outline: as §1

NCI-H1299 = test system: NCI-H1299
Outline: as §1

NCI-H1648 = test system: NCI-H1648
Outline: as §1

NCI-H1651 = test system: NCI-H1651
Outline: as §1

NCI-H1703 = test system: NCI-H1703
Outline: as §1

NCI-H1944 = test system: NCI-H1944
Outline: as §1

NCI-H520 = test system: NCI-H520
Outline: as §1

NCI-H650 = test system: NCI-H650
Outline: as §1

NCI-H838 = test system: NCI-H838
Outline: as §1

PC-3 [JPC-3] = test system: PC-3 [JPC-3]
Outline: as §1

RERF-LC-KJ = test system: RERF-LC-KJ
Outline: as §1

COc1cc2nccc(Oc3ccc(NC(=O)Nc4cc(C)on4)c(Cl)c3)c2cc1OC [Tivozanib] + O=C(c1cc(Cc2n[nH]c(=O)c3ccccc23)ccc1F)N1CCN(C(=O)C2CC2)CC1 [Olaparib] (partner 8 µM)
relative viability (A549; first compound 0.005 µM): 0.349 | relative viability (A549; first compound 0.01581 µM): 0.456 | relative viability (A549; first compound 0.05 µM): 0.398 | relative viability (A549; first compound 0.1581 µM): 0.0913 | relative viability (A549; first compound 0.5 µM): 0.246 | relative viability (Calu-6; first compound 0.005 µM): 0.581 | relative viability (Calu-6; first compound 0.01581 µM): 0.618 | relative viability (Calu-6; first compound 0.05 µM): 0.522 | relative viability (Calu-6; first compound 0.1581 µM): 0.671 | relative viability (Calu-6; first compound 0.5 µM): 0.519 | relative viability (EBC-1; first compound 0.005 µM): 0.642 | relative viability (EBC-1; first compound 0.01581 µM): 0.704 | relative viability (EBC-1; first compound 0.05 µM): 0.708 | relative viability (EBC-1; first compound 0.1581 µM): 0.777 | relative viability (EBC-1; first compound 0.5 µM): 0.736 | relative viability (IA-LM; first compound 0.005 µM): 0.867 | relative viability (IA-LM; first compound 0.01581 µM): 0.891 | relative viability (IA-LM; first compound 0.05 µM): 0.857 | relative viability (IA-LM; first compound 0.1581 µM): 0.697 | relative viability (IA-LM; first compound 0.5 µM): 0.672 | relative viability (NCI-H1299; first compound 0.005 µM): 0.969 | relative viability (NCI-H1299; first compound 0.01581 µM): 1.01 | relative viability (NCI-H1299; first compound 0.05 µM): 0.962 | relative viability (NCI-H1299; first compound 0.1581 µM): 0.965 | relative viability (NCI-H1299; first compound 0.5 µM): 0.844 | relative viability (NCI-H1648; first compound 0.005 µM): 1 | relative viability (NCI-H1648; first compound 0.01581 µM): 0.736 | relative viability (NCI-H1648; first compound 0.05 µM): 0.799 | relative viability (NCI-H1648; first compound 0.1581 µM): 1.25 | relative viability (NCI-H1648; first compound 0.5 µM): 0.713 | relative viability (NCI-H1651; first compound 0.005 µM): 0.187 | relative viability (NCI-H1651; first compound 0.01581 µM): 0.188 | relative viability (NCI-H1651; first compound 0.05 µM): 0.198 | relative viability (NCI-H1651; first compound 0.1581 µM): 0.203 | relative viability (NCI-H1651; first compound 0.5 µM): 0.158 | relative viability (NCI-H1703; first compound 0.005 µM): 0.216 | relative viability (NCI-H1703; first compound 0.01581 µM): 0.256 | relative viability (NCI-H1703; first compound 0.05 µM): 0.241 | relative viability (NCI-H1703; first compound 0.1581 µM): 0.177 | relative viability (NCI-H1703; first compound 0.5 µM): 0.146 | relative viability (NCI-H1944; first compound 0.005 µM): 0.331 | relative viability (NCI-H1944; first compound 0.01581 µM): 0.395 | relative viability (NCI-H1944; first compound 0.05 µM): 0.416 | relative viability (NCI-H1944; first compound 0.1581 µM): 0.406 | relative viability (NCI-H1944; first compound 0.5 µM): 0.376 | relative viability (NCI-H520; first compound 0.005 µM): 0.42 | relative viability (NCI-H520; first compound 0.01581 µM): 0.354 | relative viability (NCI-H520; first compound 0.05 µM): 0.334 | relative viability (NCI-H520; first compound 0.1581 µM): 0.315 | relative viability (NCI-H520; first compound 0.5 µM): 0.301 | relative viability (NCI-H650; first compound 0.005 µM): 0.321 | relative viability (NCI-H650; first compound 0.01581 µM): 0.359 | relative viability (NCI-H650; first compound 0.05 µM): 0.42 | relative viability (NCI-H650; first compound 0.1581 µM): 0.401 | relative viability (NCI-H650; first compound 0.5 µM): 0.323 | relative viability (NCI-H838; first compound 0.005 µM): 0.785 | relative viability (NCI-H838; first compound 0.01581 µM): 0.785 | relative viability (NCI-H838; first compound 0.05 µM): 0.825 | relative viability (NCI-H838; first compound 0.1581 µM): 0.828 | relative viability (NCI-H838; first compound 0.5 µM): 0.773 | relative viability (PC-3 [JPC-3]; first compound 0.01581 µM): 1.22 | relative viability (PC-3 [JPC-3]; first compound 0.05 µM): 1.11 | relative viability (PC-3 [JPC-3]; first compound 0.1581 µM): 1.15 | relative viability (PC-3 [JPC-3]; first compound 0.5 µM): 1.09 | relative viability (RERF-LC-KJ; first compound 0.005 µM): 0.97 | relative viability (RERF-LC-KJ; first compound 0.01581 µM): 0.954 | relative viability (RERF-LC-KJ; first compound 0.05 µM): 0.974 | relative viability (RERF-LC-KJ; first compound 0.1581 µM): 0.929 | relative viability (RERF-LC-KJ; first compound 0.5 µM): 0.875
